Results taken from patent publication US7517646B2, “Functional molecule and process for producing the same” (Fujitsu Limited, priority 2002, dated 2009).

Biological target: human albumin (Homo sapiens, UniProt P02768)
Test: affinity column filled with beads bound with human albumin; binding of the selected functional molecule
Details: functional molecule selected from the random polymer pool N20-M20-N20 on a human albumin affinity column
Experimental: First, an affinity column, which was filled with beads bound with human albumin as the target, was prepared and a solution containing the random polymer pool was passed through this column to leave at a specific condition and, then, the modified oligonucleotide sequence showing the affinity to the target adsorbed to the column (FIG. 3B). Subsequently, remained components other than the remained oligonucleotide sequence were removed by washing sufficiently with a buffer solution and the solution containing human albumin was passed through the column to select and collect the oligonucleotide containing the modified oligonucleotide random sequence (FIG. 3C). The step described above is the selecting step.
This selected modified oligonucleotide sequence was amplified by PCR followed by cloning to know the base sequence of the DNA. As the result, a portion of the base sequence of the determined modified oligonucleotide was “ATGCTCTAGCCCCT” (SEQ ID NO: 1) (FIG. 3D). The step described above is the determining step.
Translating this base sequence on the basis of the relation table presented “AU1GC6U4CU3AGC6C3CC5T” resulting in identification of a structure of the functional molecule (FIG. 3D). The step described above is the translating step.

human albumin, sequence (P02768 25-609): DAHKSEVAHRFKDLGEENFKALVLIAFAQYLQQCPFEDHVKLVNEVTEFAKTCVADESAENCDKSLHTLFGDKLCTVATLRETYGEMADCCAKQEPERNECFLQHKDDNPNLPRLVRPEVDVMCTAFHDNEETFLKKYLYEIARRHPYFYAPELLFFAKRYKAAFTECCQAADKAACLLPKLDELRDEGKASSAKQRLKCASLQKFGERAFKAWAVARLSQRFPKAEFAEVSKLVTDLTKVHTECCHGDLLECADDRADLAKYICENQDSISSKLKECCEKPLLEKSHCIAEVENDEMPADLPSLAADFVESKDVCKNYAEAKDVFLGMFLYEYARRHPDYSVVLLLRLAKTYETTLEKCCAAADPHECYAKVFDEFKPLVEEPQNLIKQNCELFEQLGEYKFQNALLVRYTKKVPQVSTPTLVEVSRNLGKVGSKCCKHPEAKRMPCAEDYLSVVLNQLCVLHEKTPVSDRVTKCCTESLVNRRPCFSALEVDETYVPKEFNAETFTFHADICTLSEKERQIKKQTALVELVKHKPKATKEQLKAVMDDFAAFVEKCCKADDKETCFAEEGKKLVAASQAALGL

Substance: AU1GC6U4CU3AGC6C3CC5T (AUGCUCUAGCCCCT; modified nucleotides, further chemistry not given here) [functional molecule]
- binding to human albumin: bound specifically with human albumin
